Laboratory results taken from publication PMC6468747 (Cancers, 2019).

Columns and labels:
HCC-1806 (BL2) = assay: MTT cell growth assay, 7 days; type: cell-based; conditions: Homo sapiens, HCC1806, 168 h
Procedure: (§1) Figure 3 In vitro characterization, pharmacokinetics and toxicity profile of VNLG-152R and its two enantiomers. (A) HPLC chromatograms racemic VNLG-152R (left panel) and the resolved enantiomers VNLG-152E1 and VNLG-152E2 (right panel). The conditions of HPLC procedure are presented in Supplementary Materials. (B) Table summarizing GI50 values (µM) each cell line treated with VNLG-152R and its enantiomers. TNBC cell subtypes were treated with listed compound (0.1 nmol/L–100 µmol/L) for 7 days and the GI50 values for the anti-proliferative effects of the compounds were determined from dose response curves (by a nonlinear regression analysis using Graph Pad Prism). Data represents the results from six independent experiments for each cell line. (C) Plasma concentration versus time profile after intravenous (IV, 2 mg/kg each, top panel) or oral (PO, 20 mg/kg each, bottom panel) of VNLG-152R (red), VNLG-152E1 (purple) and VNLG-152E2 (blue) to female CD1 mice. Values represent the mean plasma concentrations from three mice per time point. (D) Table of the pharmacokinetic parameters of various compounds after IV and PO dosing. AUC = area under the curve, T1/2 = elimination half-life, Cmax = maximum plasma concentration, F (%) = oral bioavailability. (E) Effects of VNLG-152R, VNLG-152E1 and VNLG-152E2 on body weight and clinical observations at chronic dose termination of study. Three different doses, i.e., 10, 25, and 50 mg/kg/day (formulated in 40% β-cyclodextrin in saline) of each compound were administered daily by oral gavage for 14 days. Each group consisted of three mice. Loss in body weight, a clinical sign of toxicity was observed during the 14 days of dosing and the maximum tolerated dose (MTD) was estimated following established procedures. Changes in body weight were scored on a scale of 0–4 as follows as described under methods. […]

MDA-MB-231 (MSL) = assay: MTT cell growth assay, 7 days; type: cell-based; conditions: Homo sapiens, MDA-MB-231, 168 h
Procedure: as §1

MDA-MB-453 (LAR) = assay: MTT cell growth assay, 7 days; type: cell-based; conditions: Homo sapiens, MDA-MB-453, 168 h
Procedure: as §1

MFM-223 (LAR) = assay: MTT cell growth assay, 7 days; type: cell-based; conditions: Homo sapiens, MFM-223, 168 h
Procedure: as §1

MDA-MB-468 (BL1) = assay: MTT cell growth assay, 7 days; type: cell-based; conditions: Homo sapiens, MDA-MB-468, 168 h
Procedure: as §1

MDA-MB-436 (MSL) = assay: MTT cell growth assay, 7 days; type: cell-based; conditions: Homo sapiens, MDA-MB-436, 168 h
Procedure: as §1

EMT-related proteins = assay: Western blot of EMT-related proteins in MDA-MB-231 and MDA-MB-468 cells; type: cell-based, human; conditions: 24 h
Procedure: MDA-MB-231, MDA-MB-468, MDA-MB-436, MDA-MB-453, HCC-1806, and MFM-223 cells were purchased from American Type Culture Collection (ATCC, Manassas, VA, USA), and authenticated at the Biopolymer/Genomics Core Facility, University of Maryland Baltimore. Cells were tested for mycoplasma contamination at the University of Maryland Marlene and Stewart Greenebaum Cancer Center (UMGCC) Translational Shared Service. Cells were cultured in the recommended media supplemented with 10% FBS and plated 1 day prior to treatment. Cells were treated with the indicated dose and time in the figure at 37 °C in 5% CO2. Protein lysates were harvested in RIPA lysis buffer (Sigma). Western blotting was done as described previously with antibodies described above.

MDA-MB-231 cells [1] = assay: MTT cell viability with/without siMnk1 knockdown; type: cell-based, human; conditions: 5 μM
Procedure: Small interfering RNA targeting the Mnk1 (siMnk1) gene and corresponding scramble siRNA sequence (siControl) were purchased from Ambion ((Waltham, MA, USA). Briefly, 3 × 10^5 MDA-MB-231 cells were seeded into 6 cm cell culture dish (Corning®) and incubated for 24 h in for normal culture medium. Subsequently, cells were subjected to transfection with 100 nM of siMnk1 or siControl using the RNAi Human/Mouse Starter Kit (Qiagen, (Qiagen, Hilden, Germany) following the manufacturer’s instructions for 48 h. For cell growth assay experiments, transfection complex was removed after 48 h, cells were washed twice with phosphate-buffered saline and replaced with normal growth medium. Twenty-four hour later, 5 μM of VNLG-152R was added to the growth media and harvested after 24 h. Non-transfected cells were also treated with 5 μM of VNLG-152R for 24 h. Protein silencing was confirmed by immunoblot analysis.

[2] = 14-day oral toxicity / MTD study; set-up: species or system female athymic nude mice; conditions: female, athymic nude, mouse, in vivo; oral, 14 days, estimated; read-out: maximum tolerated dose (MTD)
Procedure: Three different doses, i.e., 10, 25, and 50 mg/kg/day (formulated in 40% β-cyclodextrin in saline) of each compound were administered daily by oral gavage for 14 days. Each group consisted of 3 mice. Their body weight kinetics (loss in body weight, a clinical sign of toxicity) was observed during the 14 days of dosing following established procedures. Changes in body weight were scored on a scale of 0–4 as follows: (1) Weight loss: (10 g = 4, 7–9 g = 3, 4–6 g = 2, 1–3 g = 1; severe = 3, moderate = 2, slight = 1, none = 0).

MDA-MB-231 cells [3] = assay: Real time cell invasion assay (xCELLigence); type: cell-based, human; conditions: 2.5, 5 and 10 μM, 24 h pre-treatment
Procedure: Real-time measurement of cell invasion was performed using the xCELLigence RTCA DP device (ACEA Biosciences, San Diego, CA, USA). MDA-MB-231 cells were treated with VNLG-152 (2.5, 5, and 10 μM) for 24 h, cells being treated with VNLG-152 when they were plated. Subsequently, cells were seeded (75,000/well) onto 16-well microelectronic censored, two chamber Matrigel-coated trans-well plates (CIM-plates) containing the respective drug in serum-free condition. Medium containing 10% serum (chemo-attractant) was added to the bottom wells. Invasion of cells was measured from the interaction of cells with the electrodes on the bottom surface of top chamber and represented as a change in cell index (CI), an arbitrary unit derived from the relative change in electrical impedance across microelectronic sensor arrays. The electrical impedance was captured every 3 min for an experimental duration of 24 h. The rate of invasion is expressed as the CI or the change in electrical impedance at each timepoint. Values are expressed as the ±SEM of the duplicate wells from three independent experiments.

In the case of `CC1=C(/C=C/C(C)=C/C=C/C(C)=C/C(=O)Nc2ccc(F)cc2)C(C)(C)CCC1n1ccnc1` (racemic) [VNLG-152R, 4-(±)-(1H-imidazol-1-yl)-N-(4-fluorophenyl)-(E)-retinamide], the GI50 (HCC-1806 (BL2)) is reported as 810 ± 40 nM, the GI50 (MDA-MB-231 (MSL)) is reported as 620 ± 30 nM and the GI50 (MDA-MB-453 (LAR)) is reported as 740 ± 30 nM. For the same molecule, the GI50 (MFM-223 (LAR)) was 1860 ± 120 nM, the GI50 (MDA-MB-468 (BL1)) was 890 ± 60 nM and the GI50 (MDA-MB-436 (MSL)) was 890 ± 30 nM. The “expression of N-Cadherin, β-catenin, MMP-2, MMP-9, Snail, Slug, Vimentin and TCF/ZEB-1” value (EMT-related proteins) was “concentration-dependent decreases”, the “reduction in cell viability” value (MDA-MB-231 cells [1]; non-transfected MDA-MB-231 cells) was ~ 75% and the “cell viability in cells harboring Mnk1 knockdown” value (MDA-MB-231 cells [1]; siMnk1-transfected MDA-MB-231 cells) was “did not show any significant decrease in cell viability”. The MTD at 14 days [2] was greater than 50 mg/kg and the “invasive ability (cell index)” value (MDA-MB-231 cells [3]) was “significantly lower”.
